Converted amounts (≈) assume the structure as drawn. Where two headings read alike, the source gives them in different places.
Tests used:
[1] = Stability against human liver microsomes; format: in vitro ADME; settings: 2 μM compound
Description: (§1) Determination of Stability Against Mouse and Human Mirosomes
(§2) Pooled human liver microsomes (Cat. 452161; Lot. 23418) were purchased from Corning and pooled male mouse liver microsomes (Cat. M1000; Lot. 1210302) were purchased from Xenotech. Microsomes were stored at −80° C. prior to use. 40 μL of ultra-pure H2O was used instead of NADPH solution in the negative control. The negative control was used to exclude the misleading factor that was resulted from instability of chemical itself. Samples with NADPH were prepared in duplicate. Negative controls were prepared in singlet.
(§3) The reaction was started with the addition of 4 μL of 200 μM compound solution to each master solution to get the final concentration of 2 μM. Verapamil was used as positive control in the assay. Aliquots of 50 μL were taken from the reaction solution at 0, 15, 30, 45 and 60 min. The reaction was stopped by addition of 4 volumes of cold acetonitrile with IS (200 nM imipramine, 200 nM labetalol and 2 μM ketoprofen). Samples were centrifuged at 3,220 g for 40 minutes. Aliquot of […] of the supernatant was mixed with 90 μL of ultra-pure H2O and then was used for LC-MS/MS analysis. Results are shown in Table 3 by indicating remaining % of the test compound after 60 minutes incubation with liver microsomes from human and mouse in the presence of NADPH.

[2] = Stability against mouse liver microsomes; format: in vitro ADME; settings: for Liver microsome stability remaining % after 60 min incubation with NADPH, mouse LM: 2 μM compound
Description: as §1, §2, §3

[3] = tested on: A549; assay: Anti-proliferative activity, CellTiterGlo assay, A549; format: cell-based; settings: Homo sapiens; A549, 96 hrs incubation; read-out: Antiproliferative activities IC50, A549
Description: (§4) The anti-proliferative activities of the compounds against 6 human cancer cell lines were determined by CellTiterGlo assay kit. All cells were obtained from ATCC and cultured as recommended by the vendor. Cells were assayed in exponential growth phase. Sample solution was prepared by 3-fold serial dilution from 30 mM stock for 10 doses in DMSO. Antiproliferative activities were measured by CellTiterGlo assay kit according to the protocol after cells were incubated for 96 hrs in a 37° C., 5% CO2 incubator.
(§5) On the 4th day of incubation, i) 15 μl reagent (CelltiterGlo assay kit) was added per well and plate was shaken (avoiding light) for 2 mins on a plate shaker, ii) the plate was kept (avoiding light) in room temperature for 30 min, and iii) the luminescence value was recorded by Multiplate reader.

[4] = tested on: HT29; assay: Anti-proliferative activity, CellTiterGlo assay, HT29; format: cell-based; settings: Homo sapiens, HT-29; HT29, 96 hrs incubation; read-out: Antiproliferative activities IC50, HT29
Description: as §4, §5

[5] = tested on: BxPC-3; assay: Anti-proliferative activity, CellTiterGlo assay, BxPC-3; format: cell-based; settings: Homo sapiens; BxPC-3, 96 hrs incubation; read-out: Antiproliferative activities IC50, BxPC-3
Description: as §4, §5

[6] = tested on: LNCaP; assay: Anti-proliferative activity, CellTiterGlo assay, LNCaP; format: cell-based; settings: Homo sapiens, 96 hrs incubation, read-out: Antiproliferative activities IC50, LNCaP
Description: as §4, §5

[7] = tested on: MDA-MB-231; assay: Anti-proliferative activity, CellTiterGlo assay, MDA-MB-231; format: cell-based; settings: Homo sapiens; MDA-MB-231, 96 hrs incubation; read-out: Antiproliferative activities IC50, MDA-MB-231
Description: as §4, §5

[8] = tested on: U87-MG; assay: Anti-proliferative activity, CellTiterGlo assay, U87-MG; format: cell-based; settings: Homo sapiens, U-87 MG, 96 hrs incubation, read-out: Antiproliferative activities IC50, U87-MG
Description: as §4, §5

[9] = Solubility in pH4.0 and pH7.4 phosphate buffer solution; format: physicochemical; settings: phosphate buffer (PBS), aqueous buffer, kinetic from dmso stock, 2 hr incubation, 25° C.
Description: 1) Preparation of Stock Solutions
Diclofenac was used as positive control in the assay.
2) Procedures for Solubility Determination
This study was performed in duplicate. […] The filtered samples were diluted with methanol.
3) Samples Analyzed by LC-MS/MS

[10] = pH 4.0 phosphate buffer solution, read-out: Solubility, pH 4.0 PBS
[11] = pH 7.4 phosphate buffer solution, read-out: Solubility, pH 7.4 PBS

| Liver microsome stability remaining % after 60 min incubation with NADPH, human LM [1] | Liver microsome stability remaining % after 60 min incubation with NADPH, mouse LM [2] | SMILES | further results |
| --- | --- | --- | --- |
| 74% | 58% | COc1c(Cl)c(C)c(/C=N/O)c(O)c1C/C=C(C)/C=C/[C@@]1(C)[C@H](C)CC/C(=N\O)[C@@H]1C [Compound 3, 4-chloro-2-[(2E,4E)-5-[(1R,2R,3E,6R)-3-(hydroxyimino)-1,2,6-trimethylcyclohexyl]-3-methylpenta-2,4-dien-1-yl]-6-[(1E)-(hydroxyimino)methyl]-3-methoxy-5-methylphenol] |  |
| 100% | 83% | CO/N=C/c1c(C)c(Cl)c(OCF)c(C/C=C(C)/C=C/[C@@]2(C)[C@H](C)CC/C(=N\OC)[C@@H]2C)c1O [Compound 9, 4-chloro-3-(fluoromethoxy)-2-[(2E,4E)-5-[(1R,2R,3E,6R)-3-(methoxyimino)-1,2,6-trimethylcyclohexyl]-3-methylpenta-2,4-dien-1-yl]-6-[(1E)-(methoxyimino)methyl]-5-methylphenol] |  |
| 81% | 56% | CO/N=C/c1c(C)c(Cl)c(OCF)c(C/C=C(C)/C=C/[C@@]2(C)[C@H](C)CC/C(=N\O)[C@@H]2C)c1O [Compound 11, 4-chloro-3-(fluoromethoxy)-2-[(2E,4E)-5-[(1R,2R,3E,6R)-3-(hydroxyimino)-1,2,6-trimethylcyclohexyl]-3-methylpenta-2,4-dien-1-yl]-6-[(1E)-(methoxyimino)methyl]-5-methylphenol] |  |
| 86% | 59% | CCOC(=O)CO/N=C1\CC[C@@H](C)[C@](C)(/C=C/C(C)=C/Cc2c(O)c(/C=N/OC)c(C)c(Cl)c2OC)[C@H]1C [Compound 18, ethyl 2-([[(1E,2R,3R,4R)-3-[(1E,3E)-5-[3-chloro-6-hydroxy-2-methoxy-5-[(1E)-(methoxyimino)methyl]-4-methylphenyl]-3-methylpenta-1,3-dien-1-yl]-2,3,4-trimethylcyclohexylidene]amino]oxy)acetate] |  |
| 99% | 97% | CC(/C=C/[C@@]1(C)[C@H](C)CC/C(=N\OCC(=O)O)[C@@H]1C)=C\Cc1c(O)c(/C=N/O)c(C)c(Cl)c1OCF [Compound 27, 2-([[(1E,2R,3R,4R)-3-[(1E,3E)-5-[3-chloro-2-(fluoromethoxy)-6-hydroxy-5-[(1E)-(hydroxyimino)methyl]-4-methylphenyl]-3-methylpenta-1,3-dien-1-yl]-2,3,4-trimethylcyclohexylidene]amino]oxy)acetic Acid] | solubility at 2 h [9, 10]: 165 µM (≈ 86.6 µg/mL); solubility at 2 h [9, 11]: 315 µM (≈ 165 µg/mL) |

Second part, the molecule before the results:

| SMILES | Liver microsome stability remaining % after 60 min incubation with NADPH, human LM [1] | Liver microsome stability remaining % after 60 min incubation with NADPH, mouse LM [2] | further results |
| --- | --- | --- | --- |
| CO/N=C/c1c(C)c(Cl)c(OC)c(C/C=C(C)/C=C/[C@@]2(C)[C@H](C)CC/C(=N\OC)[C@@H]2C)c1O [Compound 8, 4-chloro-3-methoxy-2-[(2E,4E)-5-[(1R,2R,3E,6R)-3-(methoxyimino)-1,2,6-trimethylcyclohexyl]-3-methylpenta-2,4-dien-1-yl]-6-[(1E)-(methoxyimino)methyl]-5-methylphenol] | 100% | 89% |  |
| CO/N=C/c1c(C)c(Cl)c(OC)c(C/C=C(C)/C=C/[C@@]2(C)[C@H](C)CC/C(=N\O)[C@@H]2C)c1O [Compound 10, 4-chloro-2-[(2E,4E)-5-[(1R,2R,3E,6R)-3-(hydroxyimino)-1,2,6-trimethylcyclohexyl]-3-methylpenta-2,4-dien-1-yl]-3-methoxy-6-[(1E)-(methoxyimino)methyl]-5-methylphenol] | 83% | 63% |  |
| CC(/C=C/[C@@]1(C)[C@H](C)CC/C(=N\OCCN2CCOCC2)[C@@H]1C)=C\Cc1c(O)c(C=O)c(C)c(Cl)c1OCF [Compound 12, 3-chloro-4-(fluoromethoxy)-6-hydroxy-2-methyl-5-[(2E,4E)-3-methyl-5-[(1R,2R,3E,6R)-1,2,6-trimethyl-3-[[2-(morpholin-4-yl)ethoxy]imino]cyclohexyl]penta-2,4-dien-1-yl]benzaldehyde] |  |  | IC50 [3]: 2900 nM; IC50 [4]: 2800 nM; IC50 [5]: 2300 nM; IC50 [6]: 900 nM; IC50 [7]: 5800 nM; IC50 [8]: 3600 nM |
| CO/N=C/c1c(C)c(Cl)c(OC)c(C/C=C(C)/C=C/[C@@]2(C)[C@H](C)CCC(C)(O)[C@@H]2C)c1O (stereo partly drawn) [Compound 14, (E)-3-chloro-6-hydroxy-5-((2E,4E)-5-((1R,2R,6R)-3-hydroxy-1,2,3,6-tetramethylcyclohexyl)-3-methylpenta-2,4-dien-1-yl)-4-methoxy-2-methylbenzaldehyde O-methyl oxime] | 99% | 88% |  |
| CO/N=C/c1c(C)c(Cl)c(OC)c(C/C=C(C)/C=C/[C@@]2(C)[C@H](C)CC/C(=N\OCCN3CCOCC3)[C@@H]2C)c1O [Compound 16, 4-chloro-3-methoxy-6-[(1E)-(methoxyimino)methyl]-5-methyl-2-[(2E,4E)-3-methyl-5-[(1R,2R,3E,6R)-1,2,6-trimethyl-3-[[2-(morpholin-4-yl)ethoxy]imino]cyclohexyl]penta-2,4-dien-1-yl]phenol] | 56% | 76% |  |
| CO/N=C/c1c(C)c(Cl)c(OC)c(C/C=C(C)/C=C/[C@@]2(C)[C@H](C)CCC(NC3CC3)[C@@H]2C)c1O (stereo partly drawn) [Compound 23, 4-chloro-2-[(2E,4E)-5-[(1R,2R,6R)-3-(cyclopropylamino)-1,2,6-trimethylcyclohexyl]-3-methylpenta-2,4-dien-1-yl]-3-methoxy-6-[(1E)-(methoxyimino)methyl]-5-methylphenol] | 74% | 98% |  |
| CO/N=C/c1c(C)c(Cl)c(OC)c(C/C=C(C)/C=C/[C@@]2(C)[C@H](C)CCC(NC3COC3)[C@@H]2C)c1O (stereo partly drawn) [Compound 25, 4-chloro-3-methoxy-6-[(1E)-(methoxyimino)methyl]-5-methyl-2-[(2E,4E)-3-methyl-5-[(1R,2R,6R)-1,2,6-trimethyl-3-[(oxetan-3-yl)amino]cyclohexyl]penta-2,4-dien-1-yl]phenol] | 66% | 39% |  |
| CC(/C=C/[C@@]1(C)[C@H](C)CC/C(=N\OCC(=O)O)[C@@H]1C)=C\Cc1c(O)c(C=O)c(C)c(Cl)c1OCF [Compound 26, 2-([[(1E,2R,3R,4R)-3-[(1E,3E)-5-[3-chloro-2-(fluoromethoxy)-5-formyl-6-hydroxy-4-methylphenyl]-3-methylpenta-1,3-dien-1-yl]-2,3,4-trimethylcyclohexylidene]amino]oxy)acetic Acid] |  |  | solubility at 2 h [9, 10]: 192 µM (≈ 97.9 µg/mL); solubility at 2 h [9, 11]: 12.3 µM (≈ 6.27 µg/mL) |
| COc1c(Cl)c(C)c(C=O)c(O)c1C/C=C(C)/C=C/[C@@]1(C)[C@H](C)CCC(=O)[C@@H]1C [MAC, 3-chloro-6-hydroxy-4-methoxy-2-methyl-5-[(2E,4E)-3-methyl-5-[(1R,2R,6R)-1,2,6-trimethyl-3-oxocyclohexyl]penta-2,4-dien-1-yl]benzaldehyde, reference compound] | 2% | 6% | solubility at 2 h [9, 10]: < 0.08 µM; solubility at 2 h [9, 11]: 0.07 µM (≈ 0.0293 µg/mL); metabolic stability: % remained after 1 hr incubation ([2]; liver microsomes of human and mouse in the presence of NADPH, 1 hr): 6% |
